Data: patent publication US6703421B1, “Methods of using phenylmethylbenzoquinone and hydroquinone compounds for treatment of myocarditis, dilated cardiomyopathy and heart failure” (Daiichi Suntory Pharma Co., Ltd., priority 1999, dated 2004)
Where two headings read alike, the source gives them in different places.

Assays:
[1] = system: EMC virus-inoculated DBA/2 mice (viral myocarditis); experiment: Survival rate in murine viral myocarditis model; assay type: in vivo, mouse
Method: Viral myocarditis mice were prepared using the procedure described below in accordance with a known method (Shioi T. et al. (1997) J. Mol. Cell. Cardiol., 29, 2327-2334). Variant M (acquired from the American Type Culture Collection) was used for the EMC virus for inoculation and prepared to 100 pfu/ml in Eagle's MEM medium (Nissui Pharmaceutical). Four-week-old DBA/2 male mice were divided into two groups, and intraperitoneally inoculated with EMC virus at 10 pfu/animal. Test compound was then administered intraperitoneally and daily for 14 days under the following conditions to each group starting 3 hours after inoculation.
The test compound was used after dissolving in 0.5% aqueous gum arabic solution (3 mg/ml). In the present example, the compound of Production Example 4 was used in the test as the NF-κB inhibitor.
Test group (n=10): Administration of NF-κB inhibitor (Production Example 4) at 30 mg/kg body weight Control group (n=10): 0.5% aqueous gum arabic solution
The experiment was conducted in the following three groups using the same method as Example 2 and the compound of Production Example 7 for the NF-κB inhibitor. The test compound was used after dissolving in 10% aqueous dimethylsulfoxide solution (DMSO) (test group 1: 0.3 mg/ml, test group 2: 3 mg/ml). The survival rates were tested for the presence of a significant difference according to the Kaplan-Meier method, and statistical significance was defined as p<0.05.
Test group 1 (n=21): Administration of NF-κB inhibitor (Production Example 7) at 3 mg/kg body weight
Test group 2 (n=21): Administration of NF-κB inhibitor (Production Example 7) at 30 mg/kg body weight
Four-week-old DBA/2 male mice were inoculated with EMC virus using the same method as Example 2, and the test compound was administered orally and daily for 14 days under the following conditions to each group starting 2 hours after inoculation.
The test compound was used after dissolving in 10% aqueous sulfobutylcyclodextrin solution (3 mg/ml). In the present example, the compound of Production Example 44 was used in the test as the NF-κB inhibitor.
Test group (n=20): Administration of NF-κB inhibitor (Production Example 44) at 30 mg/kg body weight

NF-κB = NF-κB luciferase reporter assay in A549/NF-κBLuc cells; assay type: cell-based, human; details: for IC50: Homo sapiens, A549/NF-κBLuc, luciferase activity
Method: Using lipofectamine (Lifetech Oriental K. K., Tokyo) according to the conventional method, human lung cancer cell line A549 cells (ATCC catalog no. CCL185), which are known to express hiNOS by cytokine stimulation, were co-transfected with pNFκB-Luc, which are plasmid controlled by a NF-κB binding consensus sequence, and pSV2neo (Clontech, U.S.A.), and then A549/NF-κBLuc, the cell that has stably introduced pNFκB-Luc, was selected by adding G418 sulfate (1 mg/ml, Lifetech Oriental K. K.) to the culture medium.
The luciferase activity was measured using the Luciferase Assay System (Promega, U.S.A.).

[2] = IL-1β (1 ng/ml) for 4 hours, read-out: IC50 (μM) IL-1 stimulation
[3] = TNF-α (500 ng/ml) for 4 hours, read-out: IC50 (μM) TNF stimulation

Row | SMILES | IC50 (NF-κB; [2]) [µM] | also measured
1 | COC1=C(OC)C(=O)C(Cc2cccc(C(=O)N3CCOCC3)c2)=C(C)C1=O [Prod. Ex. 44, N-[3-(5,6-Dimothoxy-3-methyl-1,4-benzoquinon-2-ylmethyl)benzoyl]morpholine] | 39 | survival rate ([1]; 30 mg/kg orally daily for 14 days, 10% sulfobutylcyclodextrin, FIG. 4): improves survival rate
2 | COC1=C(OC)C(=O)C(Cc2ccccc2CCC(=O)NC(C)C)=C(C)C1=O [Prod. Ex. 73, N-[3-[2-(5,6-Dimethoxy-3-methyl-1,4-benzoquinon-2-ylmethyl)phenyl]propionyl]isopropylamine] | 34 | –
3 | COC1=C(OC)C(=O)C(Cc2ccc(CCC(=O)Nc3ccc(OC)cc3)cc2)=C(C)C1=O [Prod. Ex. 94] | 1 | –
4 | COC1=C(OC)C(=O)C(Cc2ccc(CCC(=O)Nc3ccccc3O)cc2)=C(C)C1=O [Prod. Ex. 96] | 17 | –
5 | COC1=C(OC)C(=O)C(Cc2ccc(CCC(=O)Nc3ccc(OC)c(OC)c3)cc2)=C(C)C1=O [Prod. Ex. 103] | 10 | –
6 | COC1=C(OC)C(=O)C(Cc2ccc(CCC(=O)Nc3ccc(CC#N)cc3)cc2)=C(C)C1=O [Prod. Ex. 111] | 14 | –
7 | CCCCCc1ccc(NC(=O)CCc2ccc(CC3=C(C)C(=O)C(OC)=C(OC)C3=O)cc2)cc1 [Prod. Ex. 113] | 16 | –
8 | COC1=C(OC)C(=O)C(Cc2ccc(CCC(=O)N[C@@H](C)c3ccccc3)cc2)=C(C)C1=O [Prod. Ex. 120] | 2 | –
9 | COC1=C(OC)C(=O)C(Cc2ccc(CCC(=O)N[C@H](C)c3ccccc3)cc2)=C(C)C1=O [Prod. Ex. 121] | 7 | –
10 | CCOC(=O)N1CCN(C(=O)CCc2ccc(CC3=C(C)C(=O)C(OC)=C(OC)C3=O)cc2)CC1 [Prod. Ex. 147] | 47 | –
11 | COC1=C(OC)C(=O)C(Cc2ccc(CCC(=O)N3CCN(c4ccccc4)CC3)cc2)=C(C)C1=O [Prod. Ex. 148] | 25 | –
12 | COC1=C(OC)C(=O)C(Cc2ccc(CCC(=O)N3CCC(O)(c4ccccc4)CC3)cc2)=C(C)C1=O [Prod. Ex. 151] | 20 | –
13 | COC1=C(OC)C(=O)C(Cc2ccc(CCC(=O)N3CCC(O)(c4ccc(Cl)cc4)CC3)cc2)=C(C)C1=O [Prod. Ex. 154] | 28 | –
14 | COC1=C(OC)C(=O)C(Cc2ccc(CCC(=O)N3CCN(c4ccccc4OC)CC3)cc2)=C(C)C1=O [Prod. Ex. 163] | 19 | –
15 | COC1=C(OC)C(=O)C(Cc2ccc(CCC(=O)N3CCc4cc(OC)c(OC)cc4C3)cc2)=C(C)C1=O [Prod. Ex. 167] | 15 | –
16 | COC1=C(OC)C(=O)C(Cc2ccc(CCC(=O)N3CCC(C(C)=O)(c4ccccc4)CC3)cc2)=C(C)C1=O [Prod. Ex. 168] | 9 | –
17 | COC1=C(OC)C(=O)C(Cc2ccc(CCC(=O)N3CCc4ccccc4C3)cc2)=C(C)C1=O [Prod. Ex. 169] | 43 | –
18 | COC1=C(OC)C(=O)C(Cc2ccc(CCC(=O)Nc3ccc(O)cc3)cc2)=C(C)C1=O [Prod. Ex. 189] | 28 | –
19 | Cc1csc2ncnc(NC3Cc4ccccc4C3)c12 [Prod. Ex. 190, 4-(2-Indanylamino)-5-methylthieno[2,3-d]pyrimidine] | 0.71 | IC50 (NF-κB; [3]): 1.1 µM
20 | CC(C)c1csc2ncnc(NC3Cc4ccccc4C3)c12 [Prod. Ex. 211, 4-(2-Indanylamino)-5-isopropylthieno[2,3-d]pyrimidine] | 0.064 | IC50 (NF-κB; [3]): 0.13 µM
21 | Cc1csc2ncnc(NC3Cc4ccc(Oc5ccccc5)cc4C3)c12 (stereo not shown) [Prod. Ex. 214, 4-(5-Phenoxyindan-2-yl)amino-5-methylthieno[2,3-d]pyrimidine] | 0.15 | –
22 | Cc1csc2ncnc(NC3Cc4ccc(C(=O)NCc5ccccc5)cc4C3)c12 (stereo not shown) [Prod. Ex. 220, N-Benzyl-2-(5-methylthieno[2,3-d]pyrimidine-4-yl)amino-5-indan Carboxamide] | 0.072 | IC50 (NF-κB; [3]): 0.12 µM

Continued, in another order:

Row | IC50 (NF-κB; [2]) [µM] | SMILES | also measured
23 | 10 | COC1=C(OC)C(=O)C(Cc2ccc(CCC(=O)N3CCSCC3)cc2)=C(C)C1=O [Prod. Ex. 4, N-[3-[4-(5,6-Dimethoxy-3-methyl-1,4-benzoquinon-2-ylmethyl)phenyl]propionyl]thimorpholine] | survival rate ([1]; 30 mg/kg intraperitoneally daily for 14 days, 0.5% gum arabic, FIG. 2): improves the survival rate; luciferase activity regulated by activation of NF-κB (NF-κB; A549/NF-κBLuc stimulated with IL-1β (1 ng/ml) or TNF-α (500 ng/ml) for 4 hours, dose-dependent, FIG. 1): suppresses luciferase activity; IC50 (NF-κB; [3]): 10 µM
24 | 14 | COC[C@H]1CCCN1C(=O)CCc1ccc(CC2=C(C)C(=O)C(OC)=C(OC)C2=O)cc1 [Prod. Ex. 76] | –
25 | 13 | COC1=C(OC)C(=O)C(Cc2ccc(CCC(=O)N3CCC(C(N)=O)CC3)cc2)=C(C)C1=O [Prod. Ex. 79] | –
26 | 5 | COC1=C(OC)C(=O)C(Cc2ccc(CCC(=O)N3CCC(C)CC3)cc2)=C(C)C1=O [Prod. Ex. 81] | –
27 | 1 | COC1=C(OC)C(=O)C(Cc2ccc(CCC(=O)N3CCCCC3C)cc2)=C(C)C1=O (stereo not shown) [Prod. Ex. 83] | –
28 | 5 | COC1=C(OC)C(=O)C(Cc2ccc(CCC(=O)N3CCCC(C)C3)cc2)=C(C)C1=O (stereo not shown) [Prod. Ex. 85] | –
29 | 12 | COC1=C(OC)C(=O)C(Cc2ccc(CCC(=O)NC(C)CO)cc2)=C(C)C1=O (stereo not shown) [Prod. Ex. 104] | –
30 | 16 | CCOC(=O)C1CCCCN1C(=O)CCc1ccc(CC2=C(C)C(=O)C(OC)=C(OC)C2=O)cc1 (stereo not shown) [Prod. Ex. 105] | –
31 | 7 | COC1=C(OC)C(=O)C(Cc2ccc(CCC(=O)N3CCC[C@H]3C(N)=O)cc2)=C(C)C1=O [Prod. Ex. 106] | –
32 | 19 | COC1=C(OC)C(=O)C(Cc2ccc(CCC(=O)NC(C)CC(C)C)cc2)=C(C)C1=O (stereo not shown) [Prod. Ex. 128] | –
33 | 18 | COC1=C(OC)C(=O)C(Cc2ccc(CCC(=O)NC3CCCCCC3)cc2)=C(C)C1=O [Prod. Ex. 136] | –
34 | 7 | COC1=C(OC)C(=O)C(Cc2ccc(CCC(=O)N3CC(C)CC(C)C3)cc2)=C(C)C1=O (stereo not shown) [Prod. Ex. 137] | –
35 | 36 | COC1=C(OC)C(=O)C(Cc2ccc(CCC(=O)NCCC(C)C)cc2)=C(C)C1=O [Prod. Ex. 173] | –
36 | 19 | COC1=C(OC)C(=O)C(Cc2ccc(CCC(=O)NC3CCCCC3)cc2)=C(C)C1=O [Prod. Ex. 175] | –
